The values that follow come from patent US10654828B2 (NOVARTIS AG, priority 2017, dated 2020).

Like-named read-outs stand apart in the source and are kept apart here.

Assay [1] relates to FoxO3a. The experiment in a line: FoxO3a inhibition: GFP-FoxO3a nuclear to cytoplasmic translocation reporter assay. It counts as cell-based. As to conditions: U2OS GFP-FoxO3a H212R cells, serum starved overnight, compound 30 minutes, ratio of nuclear to cytosolic GFP intensity, DMSO control 0%, read-out: FoxO AC50. The procedure:
(§1) Phosphorylation of AKT on S473 and FoxO3a nuclear to cytoplasmic translocation were used as readouts of PI3K/Akt/mTOR pathway activation downstream of growth factor signaling.
(§2) Reporter cell line. U2OS GFP-FoxO3a H212R reporter cell line was established by transducing U2OS cells with the retroviral plasmid pLEGFP-C1 containing FoxO3a H212R transgene and selecting for G418 resistant clones.
(§3) Reporter assay. U2OS GFP-FoxO3a H212R cells were plated in 384-well plates at 4000 cells per well in 30 microliters of McCoy's 5 A medium containing 10% FBS. On day 1 the cells were washed with serum free medium and serum starved overnight. On day 2 the cells were treated with different doses of the compounds for 30 minutes, fixed with 4% Paraformaldehyde for 1 hour and stained with Phospho-AKT (Ser473) antibody (Cell Signaling Technology, catalog #4060) overnight at 4 degrees Celsius. After nuclei staining with Hoechst 33342 (Life Technologies, catalog # H3570) the plates were imaged with InCell 2000 (GE Healthcare Bio-Sciences). FoxO3a inhibition activity is calculated as the ratio of nuclear to cytosolic GFP intensity in percent. AKT activation is measured as the total cellular intensity of Phospho-AKT antibody staining in percent. DMSO control is set as 0% activity.
(Reporter assays use an easily measured gene product as a stand-in for the process of interest.)

Assay [2] concerns AKT. Put plainly: AKT activation: Phospho-AKT (Ser473) antibody staining in reporter cells. The assay is classed as cell-based. As to conditions: U2OS GFP-FoxO3a H212R cells, serum starved overnight, compound 30 minutes, total cellular intensity of Phospho-AKT (Ser473) staining, DMSO control 0%. How it is done:
as §1, §2, §3

As a reminder, the AC50 is the midpoint of the concentration-response curve, whichever way the signal moves. Turning to `Cc1cc(C(N)=O)nn1-c1ccc2c(ccn2Cc2ccc(C3CCN(C)C3)cc2)c1` (racemic) [Example 2-1, rac-5-methyl-1-(1-(4-(1-methylpyrrolidin-3-yl)benzyl)-1H-indol-5-yl)-1H-pyrazole-3-carboxamide], the half-maximal activity concentration (AC50) in assay [1] (Homo sapiens, U2OS, 0.5 h) was 733 nM; in assay [2] (Homo sapiens, U2OS, 0.5 h), 2510 nM.

As for `Cc1cc(C(N)=O)nn1-c1ccc2c(ccn2Cc2ccc(C3=C[C@H]4CNC[C@H]4C3)cc2)c1` (racemic) [Example 24, (cis)-1-(1-(4-(1,2,3,3a,4,6a-hexahydrocyclopenta[c]pyrrol-5-yl)benzyl)-1H-indol-5-yl)-5-methyl-1H-pyrazole-3-carboxamide], the AC50 in assay [1] (Homo sapiens, U2OS, 0.5 h) worked out at 381 nM; in assay [2] (Homo sapiens, U2OS, 0.5 h) it was 1200 nM.

For `Cc1cc(C(N)=O)nn1-c1ccc2c(ccn2Cc2ccc(C3=C[C@H]4CN(C)C[C@H]4C3)cc2)c1` (racemic) [Example 25, (cis)-5-methyl-1-(1-(4-(2-methyl-1,2,3,3a,4,6a-hexahydrocyclopenta[c]pyrrol-5-yl)benzyl)-1H-indol-5-yl)-1H-pyrazole-3-carboxamide], the AC50 turned out to be 215 nM in assay [1] (Homo sapiens, U2OS, 0.5 h) and 1120 nM in assay [2] (Homo sapiens, U2OS, 0.5 h).

Consider `Cc1cc(C(N)=O)nn1-c1ccc2c(ccn2Cc2ccc(CC3CCN(C)C3)cc2)c1` (racemic) [Example 31, rac-5-methyl-1-(1-(4-((1-methylpyrrolidin-3-yl)methyl)benzyl)-1H-indol-5-yl)-1H-pyrazole-3-carboxamide], for which the AC50 in assay [1] (Homo sapiens, U2OS, 0.5 h) was 350 nM; in assay [2] (Homo sapiens, U2OS, 0.5 h), 747 nM.

Take `Cc1cc(C(N)=O)nn1-c1ccc2c(ccn2Cc2ccc(C3=CCN4CCCC3C4)cc2)c1` (single isomer, unassigned) [Example 13, 1-(1-(4-(1-azabicyclo[3.3.1]non-3-en-4-yl)benzyl)-1H-indol-5-yl)-5-methyl-1H-pyrazole-3-carboxamide]: the half-maximal activity concentration (AC50) in assay [1] (Homo sapiens, U2OS, 0.5 h) stood at 437 nM; in assay [2] (Homo sapiens, U2OS, 0.5 h) it was 1530 nM.

Regarding `Cc1cc(C(N)=O)nn1-c1ccc2c(ccn2Cc2ccc(C3=CCN4CCCC3C4)cc2)c1` (single isomer, unassigned) [Example 14, 1-(1-(4-(1-azabicyclo[3.3.1]non-3-en-4-yl)benzyl)-1H-indol-5-yl)-5-methyl-1H-pyrazole-3-carboxamide], the half-maximal activity concentration (AC50) in assay [1] amounted to 652 nM; in assay [2], 2100 nM.

`Cc1cc(C(N)=O)nn1-c1ccc2c(ccn2Cc2ccc(C3CCN(C)CC3(C)C)cc2)c1` (single isomer, unassigned) [Example 16-2, 5-methyl-1-(1-(4-(1,3,3-trimethylpiperidin-4-yl)benzyl)-1H-indol-5-yl)-1H-pyrazole-3-carboxamide]: the figures for the AC50 in assay [1] and in assay [2] were 161 nM and 1220 nM, respectively.

As to `Cc1cc(C(N)=O)nn1-c1ccc2c(ccn2Cc2ccc(-c3ccncc3)cc2)c1` [Example 1-2, 5-methyl-1-(1-(4-(pyridin-4-yl)benzyl)-1H-indol-5-yl)-1H-pyrazole-3-carboxamide], the AC50 in assay [1] (Homo sapiens, U2OS, 0.5 h) stood at 102 nM.

For `Cc1cc(C(N)=O)nn1-c1ccc2c(ccn2Cc2ccc(C3CCN(CCCN)CC3)cc2)c1` [Example 8, 1-(1-(4-(1-(3-aminopropyl)piperidin-4-yl)benzyl)-1H-indol-5-yl)-5-methyl-1H-pyrazole-3-carboxamide], in assay [1] (Homo sapiens, U2OS, 0.5 h), the AC50 is 466 nM.

Take `CC(=O)NCCCN1CCC(c2ccc(Cn3ccc4cc(-n5nc(C(N)=O)cc5C)ccc43)cc2)CC1` [Example 9, 1-(1-(4-(1-(3-acetamidopropyl)piperidin-4-yl)benzyl)-1H-indol-5-yl)-5-methyl-1H-pyrazole-3-carboxamide]: the half-maximal activity concentration (AC50) in assay [1] (Homo sapiens, U2OS, 0.5 h) was 301 nM.

Regarding `Cc1cc(C(N)=O)nn1-c1ccc2c(c1)c(CCCO)cn2Cc1ccc([C@@H]2C[C@@H]3CN(C)C[C@@H]3C2)cc1` [Example 38, 1-(3-(3-hydroxypropyl)-1-(4-((3aR,5r,6aS)-2-methyloctahydrocyclopenta[c]pyrrol-5-yl)benzyl)-1H-indol-5-yl)-5-methyl-1H-pyrazole-3-carboxamide], the half-maximal activity concentration (AC50) in assay [1] (Homo sapiens, U2OS, 0.5 h) came out at 81 nM.
